Data set [1] has as its system Human Bladder cancer cell, T24. The data set is described as follows: Relative cell viability CCK-8, T24. The conditions noted are these: Homo sapiens, 48 h. Format: cell-based. Here is the method:
(§1) Human-derived breast cancer cell line MCF-7, human-derived lung cancer cell line A549, human-derived colorectal cancer cell line HCT-116, human pancreatic cancer cell line AsPC-1, glioblastoma cell line A172, and melanoma cell line Malme-3M were obtained from the Korean Cell Bank. gastric cancer cell line SNU-719, and bladder cancer cell line T24 were cultured in RPMI-1640 medium containing 10% FBS.
(§2) Following stabilization, the cells were harvested using Trypsin-EDTA treatment, centrifuged at 1,200 rpm for 3 minutes, the supernatant was removed, and the cells were resuspended in the same medium. They were then seeded into a 96-well plate (Costar 96-well cell culture plate, Corning) at 100 μL per well, and the conditions were adjusted as indicated in Table 5.
(§3) The cells were cultured in a 5% CO2 incubator at 37° C. for 24 hours, and after stabilization of the cells, each plate was washed with 200 μL of PBS per well and treated with 50 μL of culture medium per well.
(§4) After that, 10 μL of CCK-8 was added to each well, and the plate was incubated again at 37° C. in a 5% CO2 incubator for 2 hours.
(§5) In other words, when the survival rate of untreated cells (DMSO) is set at 100%, the relative cell survival rate in each group treated with the drug at different concentrations is indicated.

Data set [2] relates to Human Pancreas Adenocarcinoma cell line, AsPC-1. The data set is described as follows: Relative cell viability CCK-8, AsPC-1. Format: cell-based. Conditions: 48 hours; for viability at 1 µM: ASPC1, 1 μM; for viability at 10 µM: ASPC1, 10 μM; for viability at 30 µM: ASPC1, 30 μM; for viability at 50 µM: ASPC1, 50 μM. The procedure:
as §1, §2, §3, §4, §5

Data set [3] relates to Human Colorectal Carcinoma cell line, HCT-116. The data set is described as follows: Relative cell viability CCK-8, HCT-116. The format is cell-based. The conditions noted are these: Homo sapiens, HCT-116, 48 hours. Here is the method:
as §1, §2, §3, §4, §5

In data set [4] the test system is T cells isolated from mouse spleens. The data set is described as follows: T cell proliferation inhibition (CFSE flow cytometry, anti-CD3/anti-CD28 stimulation). The format is cell-based. Conditions: mouse spleen T cells, 3 days; for inhibition at 0.01 µM / inhibition at 0.1 µM / inhibition at 1 µM / inhibition at 10 µM / inhibition at 30 µM / inhibition at 50 µM: Mus musculus, T-cell, 72 h, read-out: Proliferation inhibition rate (%). In short, it runs like this:
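Splenic T cells from 7-week-old C57BL/6 mice were MACS-isolated, CFSE-labelled, seeded at 2×10^5 cells/well and activated with anti-CD3/anti-CD28 (0.5 μg/mL each). Compound at 10 nM–50 μM (six levels, triplicate) was present for 3 days at 37 °C before flow cytometric readout of proliferation inhibition rate.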

The test system of data set [5] is HCT-116 colon cancer cell lines. The data set is described as follows: Matrigel Invasion Assay, HCT-116. Format: cell-based, human. Conditions: 24 hours treatment, FIG. 30. The procedure: To evaluate the metastasis inhibitory efficacy of the compounds of the present invention on HCT-116 colon cancer cell lines, an Invasion Assay using Matrigel was performed to assess the cells' invasion ability.
First, Matrigel was thawed on ice in RPMI-1640 medium without FBS, then diluted with DMEM at a ratio of 1:20.
The diluted Matrigel mixture was applied to the upper chamber at 100 μl per well, and 750 μl of RPMI-1640 without FBS was added to the lower chamber.
The plates were then incubated at 37° C. for 1 hour to allow the Matrigel to solidify.
After coating, the Matrigel mixture in the upper chamber was removed using a pipette, and the chamber was washed with RPMI without FBS.
Human-derived colorectal cancer cell line HCT-116, obtained from the Korean Cell Bank, was cultured in RPMI-1640 medium containing 10% FBS.
Following stabilization, the cells were harvested using Trypsin-EDTA treatment, centrifuged at 1,200 rpm for 3 minutes, the supernatant was removed, and the cells were resuspended in the same medium, the medium in the lower chamber was replaced with 750 μl of RPMI-1640 supplemented with 10% FBS, and the cells were seeded into the upper chamber at a density of 5×10^4 cells/well.
The cells were cultured for 24 hours after attachment, and then the compounds according to the present invention (G078, G085, G086, G088, G089, PBK-2024-010, PBK-2025-010, PBK-2025-013, PBK-2025-016) and the control substance DMSO were diluted and added to the upper chamber after removing the medium.
Additionally, the medium in the lower chamber was replaced with fresh RPMI-1640 containing FBS, and the culture was continued.
After an additional 24 hours, the medium was removed, and 1 ml of methanol was added for 10 minutes to fix the cells.
Subsequently, 1 ml of Hematoxylin was added and reacted for 5 minutes, followed by 1 ml of Eosin, which was reacted for 30 seconds. The sample was then washed with distilled water (DW).
After staining was complete, any remaining cells in the upper chamber were removed. Finally, the infiltrated cells were observed under a microscope, photographed, and the degree of infiltration was analyzed.

Data set [6] relates to Human Gastric cancer cell, SNU-719. The data set is described as follows: Relative cell viability CCK-8, SNU-719. Format: cell-based. Conditions: 48 hours. Here is the method: as §1, §2, §3, §4, §5
Data set [7] has as its system Human B Lymphocyte cell line, SU-DHL-8. The data set is described as follows: Relative cell viability CCK-8, SU-DHL-8. Format: cell-based. Conditions: 48 hours, untreated (DMSO) = 100%; for viability at 1 µM / viability at 10 µM / viability at 30 µM / viability at 50 µM: Homo sapiens, SU-DHL-8, 48 h; for viability at 1 µM: read-out: Relative cell viability (%), SU-DHL-8, 1 μM; for viability at 10 µM: read-out: Relative cell viability (%), SU-DHL-8, 10 μM; for viability at 30 µM: read-out: Relative cell viability (%), SU-DHL-8, 30 μM; for viability at 50 µM: read-out: Relative cell viability (%), SU-DHL-8, 50 μM. In short, it runs like this: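 Cells grown in RPMI-1640 with 10% FBS, treated with compound at several concentrations, then given CCK-8 for 4 h at 37° C. Viability expressed as percent of DMSO-treated cells.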

Consider five compounds from US20260183274A1, “PDK1 REGULATORY COMPOUND AND COMPOSITION CONTAINING THE SAME” (PROVIBIO CO., LTD., priority 2024, published 2026).

As for `O=C(NCCCCCCCCCCCCN1CCN2CCCC2C1)c1cccnc1` (centres unmarked) [Compound 23, N-(12-(hexahydropyrrolo[1,2-a]pyrazin-2 (1H)-yl)dodecyl) nicotinamide], the viability at 1 µM in data set [1] turned out to be 10%; in data set [2] it was 42.4%; in data set [3] it was 13.1%; in data set [6] it was 36.1%; in data set [7], 16.1%. In addition, the viability at 10 µM amounted to 10.1% in data set [1]; 44.5% in data set [2]; 14.6% in data set [3]; 35.9% in data set [6]; 15.7% in data set [7]. The viability at 30 µM was 9.53% in data set [1]; 42.7% in data set [2]; 14% in data set [3]; 40.4% in data set [6]; 9.17% in data set [7]. The viability at 50 µM in data set [1] was 9.46%; in data set [2] it was 42%; in data set [3], 13%; in data set [6], 35.6%; in data set [7], 1.97%. For the same compound, the inhibition at 0.01 µM in data set [4] (compound 10 nM) is -12.8%. Further, the inhibition at 0.1 µM in data set [4] (compound 100 nM) worked out at 100%. Further, the inhibition at 1 µM in data set [4] (compound 1 μM) was found to be 100%. Also, the inhibition at 10 µM in data set [4] (compound 10 μM) was 100%. In data set [4] (compound 30 μM), the inhibition at 30 µM came to 100%. In addition, in data set [4] (compound 50 μM), the inhibition at 50 µM was determined as 100%. For the same compound, in data set [5], the “Number of infiltrated cells (invasion)” value is on record as “reduction in the number of infiltrated cells”.
For the compound “12-(4-hydroxypiperazin-1-yl)dodecyl-N-(6-aminopurazin-2-yl) carboxamide [Compound 10]”, the “Proliferation inhibition rate (%)” value in data set [4] (compound 10 nM), in data set [4] (compound 100 nM), in data set [4] (compound 1 μM), in data set [4] (compound 10 μM), in data set [4] (compound 30 μM) and in data set [4] (compound 50 μM) was 100.00% each time. In addition, in data set [5], the “Number of infiltrated cells (invasion)” value is on record as “reduction in the number of infiltrated cells”.
Consider `Nc1ncccc1C(=O)NCCCCCCCCCCCCN1CCSC1` [Compound 31, 2-Amino-N-(12-(thiazolidin-3-yl)dodecyl)nicotinamide], for which the viability at 1 µM in data set [1] is 7.59%; in data set [2], 40.8%; in data set [3], 11.6%; in data set [7], 5.57%. Besides, the viability at 10 µM in data set [1] amounted to 7.06%; in data set [2], 41%; in data set [3] it was 13.2%; in data set [7], 4.36%. The viability at 30 µM was 7.58% in data set [1], 39.4% in data set [2], 12.3% in data set [3] and 1% in data set [7]. For the same compound, the viability at 50 µM in data set [1] stood at 6.92%; in data set [2] it was 36.6%; in data set [3], 12%; in data set [7], 0.23%. Also, the inhibition at 0.01 µM in data set [4] (compound 10 nM) was 8.01%. Moreover, the inhibition at 0.1 µM in data set [4] (compound 100 nM) was 77.2%. In data set [4] (compound 1 μM), the inhibition at 1 µM was found to be 100%. The inhibition at 10 µM in data set [4] (compound 10 μM) turned out to be 100%. Besides, the inhibition at 30 µM in data set [4] (compound 30 μM) is 100%. Also, the inhibition at 50 µM in data set [4] (compound 50 μM) was found to be 100%.
Take `CC(C)(C)OC(=O)N[C@H]1CCN(CCCCCCCCCCCCNC(=O)c2cccnc2N)C1` [Compound 49, tert-Butyl(S)-(1-(12-(2-aminonicotinamido)dodecyl)pyrrolidin-3-yl) carbamate]: the “Proliferation inhibition rate (%)” value is reported as −22.61% in data set [4] (compound 10 nM); 100.00% in data set [4] (compound 100 nM); 100.00% in data set [4] (compound 1 μM); 100.00% in data set [4] (compound 10 μM); 100.00% in data set [4] (compound 30 μM); 100.00% in data set [4] (compound 50 μM). Besides, the “Number of infiltrated cells (invasion)” value in data set [5] is “reduction in the number of infiltrated cells”. The “Relative cell viability (%), SU-DHL-8” value in data set [7] (1 μM) was determined as 8.93%; in data set [7] (10 μM), 8.02%; in data set [7] (30 μM), 7.48%; in data set [7] (50 μM) it was 4.09%.
On to `Nc1ncccc1C(=O)NCCCCCCCCCCCCN1CC(F)C1` [Compound 52, 2-Amino-N-(12-(3-fluoroazetidin-1-yl)dodecyl)nicotinamide], for which, in data set [3], the viability at 1 µM is 33.6%, the viability at 10 µM stood at 13.3%, the viability at 30 µM was 12.7% and the viability at 50 µM is 11.8%. In addition, in data set [4] (compound 10 nM), the inhibition at 0.01 µM was found to be 11.3%. Besides, the inhibition at 0.1 µM in data set [4] (compound 100 nM) worked out at 13.8%. Further, in data set [4] (compound 1 μM), the inhibition at 1 µM turned out to be 100%. In data set [4] (compound 10 μM), the inhibition at 10 µM was 100%. Further, in data set [4] (compound 30 μM), the inhibition at 30 µM is 100%. In addition, the inhibition at 50 µM in data set [4] (compound 50 μM) was found to be 100%. For the same compound, in data set [5], the “Number of infiltrated cells (invasion)” value is reported as “reduction in the number of infiltrated cells”. In data set [6], the viability at 1 µM was found to be 41.2%, the viability at 10 µM turned out to be 35.9%, the viability at 30 µM was 35.5% and the viability at 50 µM was found to be 35%. In data set [7], the viability at 1 µM is 14.2%, the viability at 10 µM stood at 11.6%, the viability at 30 µM turned out to be 10.1% and the viability at 50 µM was determined as 9.15%.
